In brackets after ≈: the same amount, converted by molar mass. Several values for one entry are separate records, joined by “and”; a condition that tells them apart may be missing. Equal values may be shown once. Where a name gives a salt, the structure may show the parent alone. Read-outs that look alike come from different tables or passages of the source.
What was measured:
rat = conditions: cited from earlier work
mouse [1] = conditions: cited from earlier work
dog = conditions: cited from earlier work
Kunming mice = test: Effect on mouse's spontaneous activities; format: in vivo; conditions: positive control 2 mg/kg
Protocol: (Bibliography: 1. Xu, Shuyun Pharmacological Test Methodology, 2nd version, P.641, People Health Press, Beijing, 1991. 2. Medicine Secretary for the Ministry of Health, Guidelines on Preclinical Study of New Pharmaceuticals (weaten drugs), P. 42, July, 1993.) • 1. […] Effect on mouse's spontaneity times: (see Table 15).
Effect on the frequency of mice' spontaneous activities: healthy mice, and 50 mice whose frequency of activities was 220-320 within 5 min were selected and randomly divided into five groups, the establishment of dosages were the same as the above. The frequency of activity at o min were measured before drug administration, and then were conducted by intragastric administration, 30, 60, 120 and 180 min later, the frequency of activities within 5 min was measured and recorded respectively, then compared with that of the control group. The measuring time was the period between 9:00 am and 4:00 pm each day. A Six-light channel spontaneous activity instrument was used for one mouse, kept at 24-26° C. of room temperature of; and kept quiet; the test was carried out after the test boxes were covered with black cloth.

physchem = conditions: phosphate buffer, 25 °C, pH 6.86, aqueous buffer, thermodynamic from solid
[2] = Solubilizing test of puerarin; format: physicochemical; conditions: 25 °C, pH 6.86, aqueous buffer, thermodynamic from solid
Text: The standard curve was plotted by concentration C against A (μg/mL) to obtain A=66.608 C+0.0017 R2=0.9999.

red blood cells = test: Hemolytic test; format: cell-based; conditions: 5% rabbit red blood cell suspension, 37° C., 30 min
Protocol: Under the present invention, using β-CD, HP-β-CD, SBE7-β-CD, SBE4-β-CD as controls, the hemolytic test results of 11 kinds of compounds are selected, shown in Table 13 and FIG. 9-FIG. 11.
10 ml of fresh rabbit blood were fetched to a clean conical flask, stirred with glass rod for 10 min to remove the fibers, then added with about 20 times of normal saline solution and placed in the centrifuge, 1500 rps/min, for about 3 min, then the supernatant was removed, washed repeated for several times until the supernatant solution becomes clear. The prepared red blood cells were prepared to 5% of suspension by normal saline solution. (Reference: State Drug Administration, Technical requirement of TCM injection study, Technical requirement of TCM new drug study, 1999, 11, 12)

[3] = Inclusion constant with puerarin, UV spectrophotometry; format: binding; conditions: PBS pH 6.86, 250 nm
Text: (§1) PBS of PH6.86 was used to prepare puerarin dilute solution, and this dilute solution was used to prepare HP4-SBE2-β-CD sample solution. […] A straight line by 1/ΔA against 1/[CD]0 was plotted, and the inclusion constant Ka of puerarin/HP4-SBE2-β-CD can be obtained according to the value of intercept/slope.

[4] = 10-100.0 mg/kg; cited from earlier work
mouse stomach intestine = conditions: 120 mg/kg and 400 mg/kg; cited from earlier work
mouse [5] = conditions: 40 mg/kg, 120 mg/kg and 400 mg/kg; cited from earlier work
[6] = Inclusion constant with prazosin hydrochloride, UV spectrophotometry; format: binding; conditions: PBS pH 6.86, 250 nm
Text: as §1, with “hydrochloride prazosin” for “puerarin”, “A” for “A straight”, “prazosin hydrochloride/HP4-SBE2-β-CD” for “puerarin/HP4-SBE2-β-CD”

[7] = Inclusion constant with ibuprofen, UV spectrophotometry; format: binding; conditions: PBS pH 6.86, 265 nm

## CC(O)CCO (stereo not drawn) [1,3-Butylene glycol]
rat; Oral
  LD50: 22.8 mg/kg and 23.31 mg/kg
rat; subcutaneous injection
  LD50: 20.06 mg/kg and 16.51 mg/kg

## OCc1ccccc1 [Benzyl alcohol]
Mouse [1]; Oral
  LD50: 1580 mg/kg
rat; Oral
  LD50: 1230 mg/kg

## O=C(OCc1ccccc1)c1ccccc1 [Benzyl benzoate]
Mouse [1]; Oral
  LD50: 1400 mg/kg
Mouse [1]; cutaneous absorption
  LD50: 4000 mg/kg

## CN(C)C=O [DMF]
Mouse [1]; Oral
  LD50: 2800 mg/kg
Mouse [1]; intraperitoneal injection
  LD50: 1400 mg/kg
Mouse [1]; intravenous injection
  LD50: 2000 mg/kg
Mouse [1]; subcutaneous injection
  LDLo: 1000 mg/kg

## C[S+](C)[O-] [DMSO]
Mouse [1]; Oral
  LD50: 16500 mg/kg
Mouse [1]; intraperitoneal injection
  LD50: 3000 mg/kg
Mouse [1]; intravenous injection
  LD50: 5750 mg/kg
Mouse [1]; subcutaneous injection
  LD50: 14 mg/kg

## CC(=O)OCC(COC(C)=O)OC(C)=O [Glyceryl triacetate]
Mouse [1]; subcutaneous injection
  LD50: 2670 mg/kg and 3250 mg/kg

## OC[C@@H](O)[C@@H](O)[C@H](O)[C@H](O)CO [Mannitol]
Mouse [1]; Oral
  LD50: 22 mg/kg
Mouse [1]; intraperitoneal injection
  LD50: 14 mg/kg
Mouse [1]; intravenous injection
  LD50: 17 mg/kg
rat; Oral
  LD50: 17 mg/kg

## CC(O)CO (stereo not drawn) [Propylene glycol]
dog; Oral
  LD50: 22 mg/kg
dog; intravenous injection
  LD50: 26 mg/kg

## CCC(C)(C)O [amyl alcohol-tert]
Mouse [1]; subcutaneous injection
  LD50: 2100 mg/kg
rat; Oral
  LD50: 1000 mg/kg

## CN(C)CCCN1c2ccccc2Sc2ccc(Cl)cc21 [chloropromazine]
Kunming mice; 0 min
  frequency of spontaneous activities: 302 ± 75 times/5 min
Kunming mice; 30 min
  frequency of spontaneous activities: 57 ± 40 times/5 min
Kunming mice; 60 min
  frequency of spontaneous activities: 16 ± 20 times/5 min
Kunming mice; 120 min
  frequency of spontaneous activities: 22 ± 19 times/5 min
Kunming mice; 180 min
  frequency of spontaneous activities: 25 ± 28 times/5 min

## CCOC(=O)C(C)O (stereo not drawn) [ethyl lactate]
Mouse [1]; intravenous injection
  LD50: 0.6 (ml)
Mouse [1]; subcutaneous injection
  LD50: 2.5 (ml)

## COc1cc2nc(N3CCN(C(=O)c4ccco4)CC3)nc(N)c2cc1OC [prazosin hydrochloride]
physchem
  solubility at 12 h: 0.0495 µg/mL

## O=c1c(-c2ccc(O)cc2)coc2c([C@@H]3O[C@H](CO)[C@@H](O)[C@H](O)[C@H]3O)c(O)ccc12 [puerarin]
[2]
  solubility at 12 h: 5800 µg/mL (≈ 13.9 mM)

## OC[C@H]1O[C@@H]2O[C@H]3[C@H](O)[C@@H](O)[C@@H](O[C@H]4[C@H](O)[C@@H](O)[C@@H](O[C@H]5[C@H](O)[C@@H](O)[C@@H](O[C@H]6[C@H](O)[C@@H](O)[C@@H](O[C@H]7[C@H](O)[C@@H](O)[C@@H](O[C@H]8[C@H](O)[C@@H](O)[C@@H](O[C@H]1[C@H](O)[C@H]2O)O[C@@H]8CO)O[C@@H]7CO)O[C@@H]6CO)O[C@@H]5CO)O[C@@H]4CO)O[C@@H]3CO [β-CD, β-cyclodextrin]
Red blood cells
  Concentration when the degree of hemolysis of 50 percent: 1140 µg/mL
  concentration without hemolysis: 280 µg/mL
Mouse [1]; intraperitoneal injection
  LD50: 788 mg/kg

## PEG400
Mouse [1]; intraperitoneal injection
  LD50: 4200 mg/kg
Mouse [1]; subcutaneous injection
  LD50: 10 (ml)

## Sodium deoxycholate
Mouse [1]; Oral
  LD50: 815 mg/kg
Mouse [1]; intraperitoneal injection
  LD50: 1400 mg/kg
Mouse [1]; subcutaneous injection
  LD50: 75 mg/kg

## hydroxypropyl-β-CD [HP-β-CD]
[3]
  inclusion constant Ka: 345
[4]
  effect on respiratory amplitude, respiratory frequency, blood pressure and ECG: no obvious effect
Mouse stomach intestine
  impellent function of mouse stomach intestine: slight reduction
Red blood cells
  Concentration when the degree of hemolysis of 50 percent: 12610 µg/mL
  concentration without hemolysis: 8160 µg/mL
Mouse [5]
  effect on mouse fasting blood glucose: no obvious effect on mouse fasting blood glucose
[6]
  inclusion constant Ka: 597
[7]
  inclusion constant Ka: 221

From patent publication US8278437B2, “Hydroxypropyl-sulfobutyl-beta-cyclodextrin, the preparation method, the analytical method, and the pharmacutical application thereof” (priority 2005, dated 2012)
